Test results reported in patent publication US7425557B2, “Inhibitors of glycogen synthase kinase 3” (Novartis Vaccines and Diagnostics, Inc., priority 1998, dated 2008).

Columns and labels:
human GSK3β = human GSK3β (Homo sapiens, UniProt P49841); experiment: Screening for GSK3 inhibitory activity using a cell-free assay; type: biochemical; settings: read-out: IC50 with respect to GSK3
Summary of the method: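 Compounds in DMSO were tested against human GSK3β over a three-hour kinase reaction. Radiolabeled phosphate transferred to the peptide was captured on streptavidin plates after EDTA/ATP stop and quantified by scintillation counting. Signal was plotted versus compound concentration.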

Sequence of human GSK3β (P49841 whole entry): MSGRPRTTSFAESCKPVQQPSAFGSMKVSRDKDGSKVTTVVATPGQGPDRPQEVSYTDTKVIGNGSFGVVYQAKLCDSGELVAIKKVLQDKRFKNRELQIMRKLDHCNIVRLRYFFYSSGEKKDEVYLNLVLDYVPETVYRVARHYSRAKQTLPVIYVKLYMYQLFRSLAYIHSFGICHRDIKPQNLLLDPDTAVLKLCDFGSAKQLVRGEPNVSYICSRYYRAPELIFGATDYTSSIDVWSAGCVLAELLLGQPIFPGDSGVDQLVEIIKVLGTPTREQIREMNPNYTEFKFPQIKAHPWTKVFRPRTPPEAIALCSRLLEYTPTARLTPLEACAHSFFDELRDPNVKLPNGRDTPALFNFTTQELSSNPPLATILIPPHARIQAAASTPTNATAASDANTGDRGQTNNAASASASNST

Compound | melting point | IC50 (human GSK3β) [nM]
N#Cc1ccc(-c2nc(NCCNc3ccc([N+](=O)[O-])cn3)ncc2C(=O)N2CCOCC2)cc1 [4-[5-(morpholin-4-ylcarbonyl)-2-({2-[(5-nitro(2-pyridyl))amino]ethyl}-amino)pyrimidin-4-yl]benzenecarbonitrile] |  | ≤ 1000
CCc1ccc(-c2nc(NCCNc3ccc([N+](=O)[O-])c(N)n3)ncc2-n2ccnc2)cc1 [{2-[(6-amino-5-nitro(2-pyridyl))amino]ethyl}[4-(4-ethylphenyl)-5-imidazolylpyrimidin-2-yl]amine] |  | ≤ 1000
CN1CC(=O)N(c2cnc(NCCNc3ccc([N+](=O)[O-])cn3)nc2-c2ccc(Cl)cc2Cl)C(=O)C1 [1-[4-(2,4-dichlorophenyl)-2-({2-[(5-nitro(2-pyridyl))amino]ethyl}amino)pyrimidin-5-yl]-4-methylpiperazine-2,6-dione] |  | ≤ 1000
O=[N+]([O-])c1ccc(NCCNc2ncc(-c3ccc(F)cc3)cn2)nc1 [[5-(4-fluorophenyl)pyrimidin-2-yl]{2-[(5-nitro(2-pyridyl))amino]ethyl}amine] |  | ≤ 10000
N#Cc1ccc(-c2ccnc(NCCNc3ccccn3)n2)cc1 [4-(2-{[2-(2-pyridylamino)ethyl]amino}pyrimidin-4-yl)benzenecarbonitrile] |  | ≤ 10000
N#Cc1cnc(NCCNc2ccc([N+](=O)[O-])cn2)nc1-c1ccccc1 [2-({2-[(5-nitro(2-pyridyl))amino]ethyl}amino)-4-phenylpyrimidine-5-carbonitrile] |  | ≤ 1000
NC(=O)c1ccc(-c2ccnc(NCCc3ccc4c(c3)OCO4)n2)cc1 |  | ≤ 10000
Nc1cnc(NCCNc2ccc([N+](=O)[O-])c(N)n2)nc1-c1ccc(Cl)cc1Cl [[5-amino-4-(2,4-dichlorophenyl)pyrimidin-2-yl]{2-[(6-amino-5-nitro(2-pyridyl))amino]ethyl}amine] |  | ≤ 1000
CCOC(=O)c1cnc(NCCc2ccccn2)nc1-c1ccc(C#N)cc1 [ethyl 4-(4-cyanophenyl)-2-[(2-(2-pyridyl)ethyl)amino]-pyrimidine-5-carboxylate] |  | ≤ 10000
O=[N+]([O-])c1ccc(NCCNc2ncc(-c3ncc[nH]3)c(-c3ccc(Cl)cc3Cl)n2)nc1 [[4-(2,4-dichlorophenyl)-5-imidazol-2-ylpyrimidin-2-yl]{2-[(5-nitro(2-pyridyl))amino]ethyl}amine] |  | ≤ 1000
N#Cc1ccc(-c2nc(NCCNc3ccc([N+](=O)[O-])cn3)nc(-c3ccc(C#N)cc3)c2C(=O)O)cc1 [4,6-bis(4-cyanophenyl)-2-({2-[(5-nitro(2-pyridyl))amino]ethyl}-amino)pyrimidine-5-carboxylic acid] |  | ≤ 1000

Second part, the molecule after the results:

melting point | IC50 (human GSK3β) [nM] | Compound
223 to 225 °C (dec.) | ≤ 1000 | O=[N+]([O-])c1ccc(NCCNc2nccc(-c3ccc(N4CCOCC4)cc3)n2)nc1 [[4-(4-morpholin-4-ylphenyl)-pyrimidin-2-yl]{2-[(5-nitro(2-pyridyl))amino]ethyl}amine]
 | ≤ 1000 | NC(=O)c1ccc(-c2ccnc(NCCNc3ccccn3)n2)cc1 [4-(2-{[2-(2-pyridylamino)ethyl]-amino}pyrimidin-4-yl)benzamide]
 | ≤ 1000 | Cc1c[nH]c(-c2cnc(NCCNc3ccc([N+](=O)[O-])cn3)nc2-c2ccc(Cl)cc2Cl)n1 [[4-(2,4-dichlorophenyl)-5-(4-methylimidazol-2-yl)pyrimidin-2-yl]{2-[(5-nitro(2-pyridyl))amino]ethyl}amine]
 | ≤ 1000 | CCCCOC(=O)c1cnc(NCCNc2ccc([N+](=O)[O-])cn2)nc1-c1ccc(C#N)cc1 [butyl 4-(4-cyanophenyl)-2-({2-[(5-nitro(2-pyridyl))amino]ethyl}amino)pyrimidine-5-carboxylate]
 | ≤ 1000 | CCOC(=O)c1cnc(NCCNc2ccc([N+](=O)[O-])cn2)nc1-c1ccc(SC)cc1 [ethyl 4-(4-methylthiophenyl)-2-({2-[(5-nitro(2-pyridyl))amino]ethyl}amino)pyrimidine-5-carboxylate]
 | ≤ 10000 | O=[N+]([O-])c1ccc(NCCNc2ccc([N+](=O)[O-])c(NCc3ccccc3)n2)nc1 [{2-[(5-nitro(2-pyridyl))amino]ethyl}{5-nitro-6-[benzylamino](2-pyridyl)}amine]
 | ≤ 10000 | O=C(NCC1CCNCC1)c1ccc(-c2ccnc(NCCNc3ccc([N+](=O)[O-])cn3)n2)cc1 [{4-[2-({2-[(5-nitro(2-pyridyl))amino]ethyl}amino)pyrimidin-4-yl]phenyl}-N-(4-piperidylmethyl)carboxamide]
 | ≤ 1000 | CCOC(=O)c1cnc(NCCNc2ccc([N+](=O)[O-])cn2)nc1-c1ccc(C(C)(C)C)cc1 [ethyl 4-[4-(tert-butyl)-phenyl]-2-({2-[(5-nitro(2-pyridyl))amino]ethyl}amino)pyrimidine-5-carboxylate]
